# From patent US20060276462A1, “Method of treating cognitive decline due to sleep deprivation and stress” (priority 2003, published 2006)
# Columns and labels:
# AMPA receptor = settings: cited from earlier work
# [1] = system: sleep deprived non-human primates; assay: Delayed Match To Sample (DMTS) task after sleep deprivation; type: in vivo; settings: for Performance on DMTS Task (% Correct ± sem): Sleep Deprivation + BCM
# Text: This task consists of a kind of “heads-up” display wherein the monkey interacts with a computer video display through motions of its hand. […] A fluorescent spot on the back of the monkey's hand is tracked by an overhead camera, and the coordinates of the hand position are proportionally translated into movement of a cursor on the video display. The animal responds to single Sample phase images by placing the cursor inside the image, then after a delay (during which the display is blanked) the animal must select the appropriate Match image (out of 2-6 different images) by placing the cursor inside the image identical to the Sample. Animal performance is scored as correct responses according to length of delay, and complexity of the trial (number of match images). Recent findings have shown that primate hippocampal neurons encode specific features of the task and stimulus, and that strength of the encoding correlates to behavioral success. Recording and on-line analysis of hippocampal neural activity allows tracking of the animal's cognitive performance under various experimental conditions. Two additional measures (eye and limb movement tracking) along with recording of movement sensitive neurons in hippocampus, putamen and motor cortex provide assessment of attention and ability to perform directed motor movements. Thus, it is possible to distinguish behavioral errors due to inattention or slow movements from those caused by inappropriate cognitive processing of the task information.
# (§1) In practice, an animal is trained in the DMTS task such that his daily performance variable is relatively constant. This is judged as baseline performance. Once a stable baseline is established, the subject is deprived of sleep for variable periods in order to establish the effect of sleep deprivation on performance. The ability of an AMPA receptor modulator to ameliorate the decline in performance in the DMTS task is assessed by administered of the test compound prior to or during testing after sleep deprivation. If the test compound is administer prior to the beginning of the test session, then the effect of the drug is compared to performance following sleep deprivation on prior or subsequent days of testing. This protocol allows for the co-administration of a metabolic tracer (such as fluorodeoxyglucose labeled with fluorine-18; FDG) so that regional brain activity can be evaluated using Positron Emission Tomography (PET). Alternatively, an intravenous administration of the test compound midway into the DMTS session allows for a within-session evaluation of drug effect.
# [2] = system: sleep deprived non-human primates; assay: Regional glucose utilization (FDG PET) in brain during DMTS task; type: in vivo
# Method: as §1
# Positron Emission Tomography (PET) was used in order to examine the extent to which different brain regions were effected by sleep deprivation by measuring the uptake of ^18F-labeled fluorodeoxyglucose (FDG) into cells as a measure of metabolic activity. By this method it was observed that there was a general increase in metabolism across all brain regions on test days that followed sleep deprivation compared to normal baseline test days (FIG. 2).
# The absolute values shown in FIG. 2 can be normalized to global brain metabolism (FIG. 3) by the following equation: (ROISD/GSD−ROIBL/GBL)/GBL where ROI mean region of interest, SD means under the condition of sleep deprivation, G means global and BL means under the condition of baseline performance.
structure (smiles),measurement,setting,value
COc1ccc(C(=O)N2CCCC2=O)cc1 [Aniracetam],Mean open time of the AMPA receptor channel,AMPA receptor,increase the mean open time
same,Amplitude of the synaptic current,AMPA receptor; mirrored in the field EPSP,increases the amplitude
same,Duration of the synaptic current,AMPA receptor; mirrored in the field EPSP,prolongs its duration
"O=C(c1ccc2nonc2c1)N1CCOCC1 [BCM, 1-(Benzofurazan-5-ylcarbonyl)morpholine]",Effect on the performance deficit in DMTS task caused by sleep deprivation,"[1]; 0.8 mg/kg (iv), single night of sleep deprivation",completely reversed the performance deficit
same,Performance compared to baseline,"[1]; Subject 1, 0.8 mg/kg (iv) after sleep deprivation",enhanced performance compared to baseline
same,Performance on DMTS Task (% Correct ± sem),"[1]; Subject No. 1, 0.8 mg/kg (iv), baseline 81 ± 2, sleep deprivation 65 ± 1",87 ± 2 % Correct
same,Performance on DMTS Task (% Correct ± sem),"[1]; Subject No. 2, 0.8 mg/kg (iv), baseline 81 ± 2, sleep deprivation 67 ± 4",83 ± 3 % Correct
same,Latencies to respond in the Match phase,"[1]; drug administration after sleep deprivation, FIG. 1",not effected
same,Metabolism (absolute uptake of FDG) in all brain regions,"[2]; BCM following sleep deprivation, compared to vehicle administration, FIG. 2",reduced compared to vehicle administration
same,Metabolism (uptake of FDG) in several brain regions relative to normal,"[2]; BCM following sleep deprivation, FIG. 2",near normal levels
same,Energy demand of the brain to perform the DMTS task (FDG uptake normalized to global brain metabolism),"[2]; FIG. 3, normalized data",reduction in energy demand
"O=C(c1ccc2nccnc2c1)N1CCCCC1 [CX516, 1-(Quinoxaline-6-ylcarbonyl)piperidine]",Improving performance in DMTS task,[1]; in vivo,effective at improving performance
